Reference: ChEMBL document CHEMBL1201862, “PubChem BioAssay data set” (2004)
Activity calls are given as the source filed them.

How the values were obtained:
Cytochrome P450 2D6 = Cytochrome P450 2D6 (Homo sapiens, UniProt P10635);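 note: CYP2D6 member of a cytochrome P450 panel assay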
Cytochrome P450 3A4 = Cytochrome P450 3A4 (Homo sapiens, UniProt P08684);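 note: CYP3A4 tested as one member of a cytochrome P450 panel screen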
Cytochrome P450 2C19 = Cytochrome P450 2C19 (Homo sapiens, UniProt P33261); experiment: Cytochrome panel assay with activity outcomes. Panel member name: p450-cyp2c19 Compounds with AC50 equal or less than 10 uM are considered active; type: functional
Sequence of Cytochrome P450 2C19 (P33261 whole entry): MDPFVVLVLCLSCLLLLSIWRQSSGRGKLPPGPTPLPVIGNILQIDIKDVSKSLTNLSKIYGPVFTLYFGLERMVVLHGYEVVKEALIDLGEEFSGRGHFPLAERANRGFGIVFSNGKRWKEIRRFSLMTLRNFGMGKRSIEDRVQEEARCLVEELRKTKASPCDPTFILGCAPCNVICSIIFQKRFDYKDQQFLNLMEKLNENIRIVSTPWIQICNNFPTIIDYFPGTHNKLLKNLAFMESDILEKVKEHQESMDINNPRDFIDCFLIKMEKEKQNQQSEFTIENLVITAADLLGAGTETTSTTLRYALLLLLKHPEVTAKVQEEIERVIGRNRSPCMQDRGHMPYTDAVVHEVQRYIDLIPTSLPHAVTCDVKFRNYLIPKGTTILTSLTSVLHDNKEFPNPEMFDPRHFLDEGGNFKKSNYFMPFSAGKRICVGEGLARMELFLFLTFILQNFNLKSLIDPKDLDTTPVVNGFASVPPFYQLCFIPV

[1] = HEp-2 cell cytotoxicity, dose response, cytotoxicity control for RSV inhibitor project, HTS (AID 2410); type: functional; details: human respiratory syncytial virus
[2] = inhibitors of firefly luciferase expression or activity, dose response, H4 neuroglioma cells, luminescence (AID 1990); type: functional, cell-based
[3] = Luminescence Cell-Based Dose Response HTS to Identify Inhibitors of 5'UTR Stem-Loop Driven Prion Protein mRNA Translation in H4 Neuroglioblastoma Cells. [Related pubchem assays: 1827 (Project Summary), 1813 (Primary HTS)]; type: functional
[4] = inhibitors of SNCA 5'UTR-driven reporter translation, confirmation, H4 neuroglioma cells, luminescence (AID 1988); type: functional, cell-based
INS1 = experiment: beta cell apoptosis inhibitors, cytokine rescue, dose response, luminescence, retest (AID 449756); type: functional, cell-based; details: Rattus norvegicus;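 note: cell death triggered by IL-1 beta plus TNF-alpha plus IFN-gamma mixture; protective hits raise ATP signal compared with cytokine alone wells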
[5] = NIH-3T3 fibroblast cytotoxicity, dose response, cytotoxicity control, cell-based, fluorescence, Alamar Blue, secondary assay (AID 2327); type: functional;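 note: NIH-3T3 mouse fibroblasts cultured with fluconazole at 8 µg/mL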
[6] = C. albicans growth with fluconazole, confirmation, fluorescence, retest (AID 2467); type: functional, cell-based
[7] = growth suppression of beta-catenin-knockout colon cells, dose response, cell-based, HCT116, human colon tumor (AID 1045); type: functional;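 note: HCT116 colon tumor cells with beta catenin knocked out; cells exposed to compound for 60 hours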
H4 = experiment: Luminescence Cell-Based Dose Response HTS to Identify Activators of 5'UTR Stem-Loop Driven Prion Protein mRNA Translation in H4 Neuroglioblastoma Cells. [Related pubchem assays: 1829 (Project Summary), 1814 (Primary HTS)]; type: functional; details: Homo sapiens
[8] = Luminescence Cell-Based Dose Response HTS to Identify Activators of Luciferase Translation or Activity in H4 […] Cells. [Related pubchem assays: 1829 (Project Summary), 1814 (Primary HTS)]; type: functional
[9] = Luminescence Cell-Based Dose Retest to Confirm Inhibitors of Cancer Stem Cells. [Related pubchem assays (depositor defined):AID2717, AID2721]; type: functional; details: Homo sapiens
Streptococcus = experiment: Group A Streptococcus viability loss, dose response, counter-screen for streptokinase expression inhibitor project, luminescence, BacTiterGlo (AID 1915); type: functional, organism-based;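 note: potency for reduction of bacterial viability or growth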
[10] = tested on: Streptococcus sp. 'group A'; experiment: growth inhibition of control SK(-) GAS strain, dose response, counter-screen for streptokinase expression inhibitor project, luminescence, kanamycin, BacTiterGlo, confirmation (AID 1900); type: functional, organism-based
Streptokinase A = target: T1, Streptokinase A (Streptococcus pyogenes serotype M1, UniProt P10520); experiment: S. pyogenes streptokinase expression inhibitors, potency, dose response, plasminogen activation absorbance, OD405 (AID 1914); type: functional, Streptococcus pyogenes M1 GAS;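 note: secreted streptokinase activity via plasminogen activation per viability signal from cell pellet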
T1 sequence (P10520 whole entry): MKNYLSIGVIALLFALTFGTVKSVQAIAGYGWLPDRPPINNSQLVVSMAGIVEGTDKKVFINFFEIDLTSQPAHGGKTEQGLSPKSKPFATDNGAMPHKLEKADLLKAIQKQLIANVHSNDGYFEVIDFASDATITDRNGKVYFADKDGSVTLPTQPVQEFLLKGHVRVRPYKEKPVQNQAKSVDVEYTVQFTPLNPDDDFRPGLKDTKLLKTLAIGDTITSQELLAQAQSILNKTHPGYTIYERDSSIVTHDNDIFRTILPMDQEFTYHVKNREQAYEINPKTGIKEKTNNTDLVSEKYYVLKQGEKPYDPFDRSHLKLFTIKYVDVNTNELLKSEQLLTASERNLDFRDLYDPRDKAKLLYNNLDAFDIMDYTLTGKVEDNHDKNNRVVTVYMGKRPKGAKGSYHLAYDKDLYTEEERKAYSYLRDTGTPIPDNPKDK

Paired box protein Pax-8 = Paired box protein Pax-8 (Homo sapiens, UniProt Q06710); experiment: inhibitors of PAX8-driven TPO luciferase reporter, dose response, RMG-I cells, cherry-pick (AID 687027); type: functional, cell-based;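 note: luciferase reporter driven by Pax8 target thyroperoxidase promoter measured by SteadyGlo luminescence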
Sequence of Paired box protein Pax-8 (Q06710 whole entry): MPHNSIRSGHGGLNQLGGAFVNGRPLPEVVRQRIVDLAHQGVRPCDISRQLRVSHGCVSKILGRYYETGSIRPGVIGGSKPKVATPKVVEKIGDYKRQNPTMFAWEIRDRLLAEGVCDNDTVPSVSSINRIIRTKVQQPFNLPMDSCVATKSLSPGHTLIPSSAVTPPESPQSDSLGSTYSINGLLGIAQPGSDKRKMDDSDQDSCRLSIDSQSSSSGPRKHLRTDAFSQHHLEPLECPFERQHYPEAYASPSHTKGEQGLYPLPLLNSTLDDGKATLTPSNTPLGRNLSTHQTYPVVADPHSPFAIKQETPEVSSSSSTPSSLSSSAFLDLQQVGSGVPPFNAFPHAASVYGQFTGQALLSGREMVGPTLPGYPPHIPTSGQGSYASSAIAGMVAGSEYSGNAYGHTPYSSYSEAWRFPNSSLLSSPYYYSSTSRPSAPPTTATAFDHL

Sequence of Cytochrome P450 2D6 (P10635 whole entry): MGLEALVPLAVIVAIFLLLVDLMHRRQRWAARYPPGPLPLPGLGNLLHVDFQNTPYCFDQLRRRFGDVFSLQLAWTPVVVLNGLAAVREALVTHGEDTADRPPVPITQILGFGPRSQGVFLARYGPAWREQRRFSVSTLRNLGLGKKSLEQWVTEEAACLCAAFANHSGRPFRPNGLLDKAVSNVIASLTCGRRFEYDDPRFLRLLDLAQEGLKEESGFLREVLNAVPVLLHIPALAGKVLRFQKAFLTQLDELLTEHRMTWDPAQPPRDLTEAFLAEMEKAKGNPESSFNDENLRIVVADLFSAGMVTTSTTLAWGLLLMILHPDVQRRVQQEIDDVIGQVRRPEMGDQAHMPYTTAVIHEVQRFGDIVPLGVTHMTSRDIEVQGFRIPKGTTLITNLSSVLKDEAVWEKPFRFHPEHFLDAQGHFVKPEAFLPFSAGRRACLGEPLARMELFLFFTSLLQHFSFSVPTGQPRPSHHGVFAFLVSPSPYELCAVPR
Sequence of Cytochrome P450 3A4 (P08684 whole entry): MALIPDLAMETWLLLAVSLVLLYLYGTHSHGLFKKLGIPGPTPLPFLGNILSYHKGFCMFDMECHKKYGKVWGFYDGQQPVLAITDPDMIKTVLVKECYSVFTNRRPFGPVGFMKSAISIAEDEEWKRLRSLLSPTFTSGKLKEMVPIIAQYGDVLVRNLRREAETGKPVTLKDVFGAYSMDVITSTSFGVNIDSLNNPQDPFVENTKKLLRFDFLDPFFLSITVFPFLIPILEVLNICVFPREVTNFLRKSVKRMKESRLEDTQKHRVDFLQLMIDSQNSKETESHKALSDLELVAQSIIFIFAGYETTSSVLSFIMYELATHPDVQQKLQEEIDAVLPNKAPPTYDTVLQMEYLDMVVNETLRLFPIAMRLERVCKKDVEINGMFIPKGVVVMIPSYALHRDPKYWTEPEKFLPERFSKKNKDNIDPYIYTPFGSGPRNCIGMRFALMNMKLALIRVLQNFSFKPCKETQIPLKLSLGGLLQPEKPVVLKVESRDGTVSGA

## C/C(CCN1CCCCc2nc(C)c(C)cc21)=N\O[C@@H](C)CN1CCCCc2nc(C)c(C)cc21
Cytochrome P450 2D6
  AC50: 5.01 µM (inconclusive)

## CN(C)c1nc(-c2ccoc2)nc2ccccc12
Cytochrome P450 2D6
  AC50: 39.8 µM (inconclusive)
Cytochrome P450 3A4
  AC50: 25.1 µM (inconclusive)
Cytochrome P450 2C19; read-out: AC50
  AC50: 31.6 µM (inconclusive)

## Cc1ccc(CSCc2ccc(C(=O)NCCC(C)C)o2)cc1
[1]
  CC50: 20.2 µM (active)

## Cc1cc(Nc2ccc(Br)cc2)nc(-c2ccccc2O)n1
[1]
  CC50: 31.9 µM (active)

## CCOc1ccc(-n2c(SCC(=O)Nc3nccs3)nc3c(c2=O)SCC3)cc1
[2]
  EC50: 11.7 µM (active)
[3]
  EC50: 19.1 µM (active)
[4]
  EC50: 12.8 µM (active)

## CCS(=O)(=O)c1ccc(OC)c(N=Nc2ccc(O)c3ncccc23)c1
INS1
  AC50: 8.44 µM (active)

## CCCc1ccc(C(=O)NNc2cccc(C)c2)cc1
[5]
  EC50: 30.2 µM (active)
[6]
  EC50: > 38 µM (not active)

## CCC(C)C1C(C#N)=C(N)Oc2[nH]nc(C)c21 (stereo not drawn)
[7]
  EC50: 189 µM (active)

## CC(=O)NCCNc1nc(-c2ccc(N(C)C)cc2)nc2ccccc12
Cytochrome P450 2D6
  AC50: 20 µM (inconclusive)
Cytochrome P450 3A4
  AC50: 10 µM (inconclusive)

## Brc1ccccc1-c1nnc2sc(Cc3ccccc3)nn12
[2]
  EC50: 64.7 µM (active)
[3]
  EC50: > 120 µM (not active)
[4]
  EC50: > 120 µM (not active)

## COc1ccc(-c2nn(-c3ccccc3)cc2/C=C\C(=O)Nc2ccc(C(=O)O)cc2)cc1
[1]
  CC50: 26.4 µM (active)

## Oc1nc2c(-c3cccc(Br)c3)nnn2c2ccccc12
H4
  EC50: 18.8 µM (active)
[8]
  EC50: 258 nM (active)

## Cc1cc(C)cc(NC(=O)NCC(O)COc2ccc([N+](=O)[O-])cc2)c1 (stereo not drawn)
[1]
  CC50: > 50 µM (active)

## CSc1ccccc1OCc1cc(C(=O)N2CCc3c(Cl)cccc3C2)no1
INS1
  AC50: 7.1 µM (active)

## COC(=O)c1cn(S(=O)(=O)c2ccccc2)c2ccccc12
[2]
  EC50: > 120 µM (not active)
[3]
  EC50: > 120 µM (not active)
[4]
  EC50: > 120 µM (not active)

## COc1cc(/C=C/c2nc(O)nc(O)c2[N+](=O)[O-])ccc1OCCC(C)C
[9]
  AC50: 5.94 µM (active)
[1]
  CC50: 19.1 µM (active)

## Cc1ccc(C(=O)C[n+]2ccc(Cc3ccccc3)cc2)cc1
[2]
  EC50: 14.3 µM (active)
[3]
  EC50: 13.7 µM (active)
[4]
  EC50: 10.5 µM (active)

## CC1CCCN(CC(O)COCC2COc3ccccc3O2)C1 (stereo not drawn)
Cytochrome P450 2C19; read-out: AC50
  AC50: 5.01 µM (inconclusive)

## NC(CC(=O)Nc1cc(C(F)(F)F)ccc1Cl)=NO
Cytochrome P450 3A4
  AC50: 3.98 µM (inconclusive)
Cytochrome P450 2C19
  AC50: inconclusive

## Cc1ccc(C(NC(=O)NC(C)c2ccccc2)C(Cl)(Cl)Cl)cc1F (stereo not drawn)
[2]
  EC50: 12 µM (active)
Streptococcus
  EC50: 99.7 µM (active)
[3]
  EC50: 18.7 µM (active)
[10]
  EC50: 3.25 µM (active)
Streptokinase A
  EC50: 7.32 µM (active)
[4]
  EC50: > 120 µM (not active)

## COc1ccc(COC(=O)N/N=C2/C[C@@H](O)[C@@H](O)[C@@H]3[C@H]4C(=O)N(c5ccc(F)cc5F)C(=O)[C@@H]4CC[C@H]23)cc1
Cytochrome P450 3A4
  AC50: 6.31 µM (inconclusive)

## Cc1ccc(-n2nc3c(N4CCC(C(=O)NCCc5cccs5)CC4)nnc(C)c3c2C)cc1
[2]
  EC50: 19.2 µM (active)
[3]
  EC50: > 120 µM (not active)

## COCCCNC(=O)Cn1nnc(-c2ccc(NC(=O)c3cccnc3)cc2)n1
INS1
  AC50: 3.95 µM (active)

## O=C1CCCN1c1ccc(S(=O)(=O)Oc2cccc(Cl)c2)cc1[N+](=O)[O-]
Cytochrome P450 2D6
  AC50: 1.78 µM (inconclusive)

## CCCC1CCC(c2ccc(C(=O)NN)cc2)CC1 (stereo not drawn)
INS1
  AC50: 10.9 µM (active)

## Cc1ccc2c(c1)N(C(=O)CCC(=O)N1CCN(c3cccc(C)c3C)CC1)CCO2
[1]
  CC50: 5.57 µM (active)

## CCOC(=O)c1[nH]c(C)c(C(=O)C2=C(O)C(=O)N(CCN3CCOCC3)C2c2cccs2)c1C (stereo not drawn)
Cytochrome P450 3A4
  AC50: 14.1 µM (inconclusive)

## O=C(NCc1ccco1)Nc1cccs1
Cytochrome P450 2D6
  AC50: 14.1 µM (inconclusive)
Cytochrome P450 3A4
  AC50: 20 µM (inconclusive)

## Oc1ncnc2c1sc1nc3c(c(-c4ccc(Cl)cc4)c12)CCC3
[1]
  CC50: > 50 µM (active)

## Cc1cccc(NC(=O)c2[nH]cnc2C(=O)NCC(=O)OC(C)(C)C)c1
[1]
  CC50: > 50 µM (active)

## CCOc1ccc(OCC)c(NC(=O)CSc2nc3ccccc3c(=O)n2C)c1
[2]
  EC50: 29.5 µM (active)
[3]
  EC50: 71.4 µM (active)
[4]
  EC50: 69.6 µM (active)

## CCN=C(S)NC1CC2CCCC(C1)N2Cc1ccco1 (stereo not drawn)
Cytochrome P450 2C19; read-out: AC50
  AC50: 14.1 µM (inconclusive)

## CC(C)CCNC(=O)C(c1ccco1)N(Cc1ccc(F)cc1)C(=O)c1snc(C(N)=O)c1N (stereo not drawn)
[5]
  EC50: 26.5 µM (active)
[6]
  EC50: > 38 µM (not active)

## CCOc1ncccc1C(=O)Nc1ccc(F)cc1
[1]
  CC50: 46.3 µM (active)

## C[C@@H](NC(=O)c1[nH]cnc1C(=O)N[C@@H](Cc1ccccc1)C(=O)OC(C)(C)C)c1ccccc1
Paired box protein Pax-8
  AC50: 5.32 µM (active)

## N=C(NOC(=O)C12CC3CC(CC(C3)C1)C2)c1ccccc1
[7]
  EC50: 90.5 µM (active)

## Cn1c(CCC(=O)Nc2ccc(N3CCOCC3)cc2)nc(=O)c2ccccc21
Cytochrome P450 2C19; read-out: AC50
  AC50: 35.5 µM (inconclusive)

## CC(C)[C@H](N)c1nnc(SCc2ccc(Cl)cc2)o1
Cytochrome P450 2D6
  AC50: 28.2 µM (inconclusive)

## CCC(=O)c1ccc(OCC(O)CN2CCCCC2)cc1.Cl (stereo not drawn)
Cytochrome P450 2D6
  AC50: 39.8 µM (inconclusive)
Cytochrome P450 2C19
  AC50: inconclusive

## CC1CCCC=CC2CC(OC(=O)CN(C)C)CC2C(O)C=CC(=O)O1 (stereo not drawn)
Paired box protein Pax-8
  AC50: < 0.26 µM (active)

## CC(C)NC(=O)C(C)n1cccc1C(=O)c1ccccc1 (stereo not drawn)
Cytochrome P450 3A4
  AC50: 15.8 µM (inconclusive)

## COc1ccc(C2C(C(=O)c3ccc(Cl)cc3)=C(O)C(=O)N2CCN2CCOCC2)c(OC)c1 (stereo not drawn)
Cytochrome P450 3A4
  AC50: 20 µM (inconclusive)
Cytochrome P450 2C19; read-out: AC50
  AC50: 39.8 µM (inconclusive)

## COc1ccc(CN(C)C[C@H]2OCCCC[C@H](C)Oc3ccc(NC(=O)Nc4ccc(C(F)(F)F)cc4)cc3C(=O)N([C@H](C)CO)C[C@@H]2C)cc1
Paired box protein Pax-8
  AC50: 10.9 µM (active)

## NC(=O)N/N=C/c1ccc2cccc(OCc3ccccc3)c2n1
[2]
  EC50: 17.8 µM (active)
[3]
  EC50: > 120 µM (not active)
[4]
  EC50: 61 µM (active)

## COc1cccc(/C=N/NC(=O)CCCC(=O)NC2CCCCC2)c1
[2]
  EC50: > 120 µM (not active)
[3]
  EC50: > 120 µM (not active)
[4]
  EC50: 15.6 µM (active)

## CCO/C(O)=C(/C=N/c1ccccc1)[N+](=O)[O-]
Cytochrome P450 2C19; read-out: AC50
  AC50: 14.1 µM (inconclusive)

## c1ccc2nc(-c3ccncc3)ccc2c1
[1]
  CC50: 25.4 µM (active)

## O=C(Nc1cnc2ccccc2c1)c1cccc(-n2cnnn2)c1
Cytochrome P450 2D6
  AC50: 7.94 µM (inconclusive)

## COc1cc(OC)c2cc(-c3ccncc3)cnc2c1
Cytochrome P450 3A4
  AC50: 0.316 µM (inconclusive)
Cytochrome P450 2C19; read-out: AC50
  AC50: 31.6 µM (inconclusive)

## CC1(C)C=Cc2c(ccc3c2OC[C@@H](c2ccc(O)cc2O)C3)O1 [GLABRIDIN]
[9]
  AC50: 6.05 µM (active)
[1]
  CC50: 13.4 µM (active)
